Test results published in patent US20220347175A1, “PYRIDAZINONE DERIVATIVE” (Sumitomo Dainippon Pharma Co., Ltd., priority 2018, published 2022).
Values belong to the compound of their own block, whether it stands above or below them.

Tests used:
human Nav1.5 = target: T1, human Nav1.5 (Homo sapiens, UniProt Q14524); assay: Amplification of Nav1.5-derived voltage-dependent sodium current (Nav1.5 current), cell line stably expressing human Nav1.5, automated patch clamp; format: cell-based
T1 construct: expressed in transfected cells; host or cells: CHO-K1 (T-REx System, ThermoFisher Scientific)
T1 sequence (Q14524 1-2015 isoform Q14524-2): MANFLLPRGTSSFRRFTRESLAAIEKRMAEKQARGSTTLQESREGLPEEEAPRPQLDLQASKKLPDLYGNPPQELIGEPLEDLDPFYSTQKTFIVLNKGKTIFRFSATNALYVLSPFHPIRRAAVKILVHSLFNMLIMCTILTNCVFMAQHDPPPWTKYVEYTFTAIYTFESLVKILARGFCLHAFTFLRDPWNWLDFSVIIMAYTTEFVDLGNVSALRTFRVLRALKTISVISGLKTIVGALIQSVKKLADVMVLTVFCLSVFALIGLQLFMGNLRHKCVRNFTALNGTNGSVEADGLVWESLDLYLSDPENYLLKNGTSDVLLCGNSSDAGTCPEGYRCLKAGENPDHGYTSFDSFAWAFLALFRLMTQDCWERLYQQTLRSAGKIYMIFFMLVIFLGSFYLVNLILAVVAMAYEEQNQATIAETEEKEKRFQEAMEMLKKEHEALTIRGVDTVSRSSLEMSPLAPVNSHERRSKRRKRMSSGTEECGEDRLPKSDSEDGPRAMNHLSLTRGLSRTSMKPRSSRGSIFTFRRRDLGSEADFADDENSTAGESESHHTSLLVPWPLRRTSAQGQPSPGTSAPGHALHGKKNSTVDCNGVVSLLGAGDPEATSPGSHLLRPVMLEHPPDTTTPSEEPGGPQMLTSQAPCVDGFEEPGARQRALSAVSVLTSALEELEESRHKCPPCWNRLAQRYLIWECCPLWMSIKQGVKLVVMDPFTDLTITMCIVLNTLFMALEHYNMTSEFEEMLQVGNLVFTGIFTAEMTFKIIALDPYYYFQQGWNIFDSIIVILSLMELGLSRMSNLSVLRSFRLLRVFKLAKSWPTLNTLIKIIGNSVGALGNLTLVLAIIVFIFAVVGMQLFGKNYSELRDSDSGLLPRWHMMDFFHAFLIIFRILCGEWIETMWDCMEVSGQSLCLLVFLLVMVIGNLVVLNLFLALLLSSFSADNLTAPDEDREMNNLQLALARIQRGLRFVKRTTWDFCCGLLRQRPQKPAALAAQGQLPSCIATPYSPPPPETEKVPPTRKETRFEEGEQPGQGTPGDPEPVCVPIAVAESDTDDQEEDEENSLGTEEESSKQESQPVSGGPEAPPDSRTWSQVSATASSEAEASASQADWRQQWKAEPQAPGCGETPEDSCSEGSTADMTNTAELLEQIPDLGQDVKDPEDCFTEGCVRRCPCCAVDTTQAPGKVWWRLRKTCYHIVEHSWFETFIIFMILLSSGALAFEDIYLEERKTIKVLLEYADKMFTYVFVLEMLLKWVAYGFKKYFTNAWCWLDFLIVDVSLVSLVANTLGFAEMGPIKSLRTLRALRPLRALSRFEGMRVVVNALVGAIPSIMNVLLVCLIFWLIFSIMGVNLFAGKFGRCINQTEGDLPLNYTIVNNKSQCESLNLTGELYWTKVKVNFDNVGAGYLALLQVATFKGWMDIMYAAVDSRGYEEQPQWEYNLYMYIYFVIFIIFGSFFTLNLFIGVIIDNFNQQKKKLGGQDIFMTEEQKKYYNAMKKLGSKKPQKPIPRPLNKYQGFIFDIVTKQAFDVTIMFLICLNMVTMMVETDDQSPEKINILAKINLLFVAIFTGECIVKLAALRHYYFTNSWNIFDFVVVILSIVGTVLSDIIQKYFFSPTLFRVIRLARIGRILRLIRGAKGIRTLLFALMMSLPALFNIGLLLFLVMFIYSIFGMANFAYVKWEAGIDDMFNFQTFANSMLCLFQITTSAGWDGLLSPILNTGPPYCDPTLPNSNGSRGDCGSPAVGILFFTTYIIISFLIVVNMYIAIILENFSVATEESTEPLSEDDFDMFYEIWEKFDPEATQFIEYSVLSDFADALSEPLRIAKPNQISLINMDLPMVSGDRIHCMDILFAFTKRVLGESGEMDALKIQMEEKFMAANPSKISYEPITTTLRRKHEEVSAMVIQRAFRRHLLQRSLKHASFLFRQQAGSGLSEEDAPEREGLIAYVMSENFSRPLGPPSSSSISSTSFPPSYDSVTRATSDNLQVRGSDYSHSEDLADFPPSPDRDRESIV
Protocol: Test 2: Evaluation of the Amplification in Nav1.5-Derived Voltage-Dependent Sodium Current (Nav1.5 Current) by Using a Cell Line Stably Expressing Human Nav1.5
A CHO-K1 cell line (Chinese hamster ovary) stably expressing human Nav1.5 (Gene Bank Accession No: P000326.2) was obtained by using purchased T-Rex System (ThermoFisher Scientific, USA), and used for the present test. The effect of test compounds on the amplification of Nav1.5 current was evaluated by using a cell line stably expressing human Nav1.5 and HTS automated patch clamp system, similarly in the method using Nav1.1. In other words, test compounds were added in an extracellular fluid which contained 1% DMSO and 500 nmol/L Tetrodotoxin (TTX), and evaluated as a change of the peak value of Nav1.5 current and the area under the curve (AUC). The induction and the measurement of Nav1.5 current, the pharmacologic effect on Nav1.5 current, and a method for pharmacological evaluation were carried out by the same method as in Nav1.1.

human Nav1.1 = target: T2, human Nav1.1 (Homo sapiens, UniProt P35498); assay: Amplification of Nav1.1-derived voltage-dependent sodium current (Nav1.1 current), cell line stably expressing human Nav1.1, automated patch clamp; format: cell-based
T2 construct: host or cells: HEK293
In short: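 Automated whole-cell voltage-clamp recordings used HEK293 cells stably expressing human Nav1.1, keeping only cells with >500 pA current, with currents evoked by ramp voltage. Compounds were applied in extracellular fluid with 1% DMSO, and amplification (%) was computed from peak current or AUC after versus before addition.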

[1] = compound 1 μmol/L, CHO-K1 stably expressing human Nav1.5
[2] = compound 1 μmol/L, HEK293 stably expressing human Nav1.1
[3] = 10 μmol/L compound, change of the area under the curve of Nav1.5 current (Test Result 1), read-out: Nav1.5 current amplification rate (%)
[4] = 10 μmol/L compound, change of the area under the curve of Nav1.1 current (Test Result 1), read-out: Nav1.1 current amplification rate (%)
[5] = 10 μmol/L compound, change of the area under the curve of Nav1.5 current (Test Result 1)
[6] = 10 μmol/L compound, change of the area under the curve of Nav1.1 current (Test Result 1)
[7] = 10 μmol/L compound (Test Result 5)
[8] = concentration of each compound 1 μmol/L (Test Result 6)

Nav1.1 current amplification rate (%) (human Nav1.1; [2]): 101%
SMILES: Cc1cc(NC(=O)Cn2nc(C3=CCC(C)CC3)ccc2=O)cn2ncnc12 (racemic) [Example 349]
Nav1.5 current amplification rate (%) (human Nav1.5; [1]): 24%

activation at 10 µM (human Nav1.1; [4]): 235%
SMILES: Cc1cc(=O)n(CC(=O)Nc2ccc3ocnc3c2)nc1N1CCC2(CCC2)C1 [Example 205]
activation at 10 µM (human Nav1.5; [3]): 20%

activation at 1 µM (human Nav1.1; compound 1 μmol/L, HEK293 stably expressing human Nav1.1, read-out: Nav1.1 current amplification rate (%)): 49%
SMILES: Cc1cc(=O)n(CC(=O)Nc2ccn3ncnc3c2)nc1C1=CCC(C)CC1 (centres unmarked) [Example 502]
activation at 1 µM (human Nav1.5; compound 1 μmol/L, CHO-K1 stably expressing human Nav1.5, read-out: Nav1.5 current amplification rate (%)): 7%

Nav1.1 current amplification rate (%) (human Nav1.1; [2]): 109%
SMILES: CC1CC=C(c2ccc(=O)n(CC(=O)Nc3ccn4nncc4c3)n2)CC1 (racemic) [Example 342]
Nav1.5 current amplification rate (%) (human Nav1.5; [1]): 52%

Nav1.1 current amplification rate (%) (human Nav1.1; [6]): 136%
SMILES: Cc1ccc(N2CCN(C(=O)Cn3nc(C4=CCC(C)CC4)ccc3=O)CC2)cn1 (racemic) [Example 396]
Nav1.5 current amplification rate (%) (human Nav1.5; [5]): 8%

activation at 10 µM (human Nav1.1; [4]): 267%
SMILES: Cc1cc(=O)n(CC(=O)Nc2ccc3c(c2)OCC3)nc1N1CCC2(CCC2)C1 [Example 203]
activation at 10 µM (human Nav1.5; [3]): 12%

Nav1.1 current amplification rate (%) (human Nav1.1; compound 3 μmol/L, HEK293 stably expressing human Nav1.1): 77%
SMILES: CC1CC=C(c2ccc(=O)n(CC(=O)N3CCc4cc(C5CN(C6COC6)C5)ccc43)n2)CC1 (racemic) [Example 318]
Nav1.5 current amplification rate (%) (human Nav1.5; compound 3 μmol/L, CHO-K1 stably expressing human Nav1.5): 128%

activation at 10 µM (human Nav1.1; [4]): 74%
SMILES: COc1cc(N2CCC(C)(C)CC2)nn(CC(=O)Nc2ccn3ccnc3c2)c1=O [Example 212]
activation at 10 µM (human Nav1.5; [3]): 3%

activation at 10 µM (human Nav1.1; [4]): 3%
SMILES: CC1CCN(c2ccc(=O)n(CC(=O)N3CCc4cc(C(F)(F)F)ccc43)n2)CC1 [Example 189]
activation at 10 µM (human Nav1.5; [3]): -2%

Nav1.1 current amplification rate (%) (human Nav1.1; [6]): 226%
SMILES: CC1(C)CC=C(c2ccc(=O)n(CC(=O)N3CCc4c(OC5COC5)cccc43)n2)CC1 [Example 436]
Nav1.5 current amplification rate (%) (human Nav1.5; [5]): 31%

Nav1.1 current amplification rate (%) (human Nav1.1; [2]): 241%
SMILES: CC1CC=C(c2ccc(=O)n(CC(=O)Nc3ccn4cncc4c3)n2)CC1 (racemic) [Example 338]
Nav1.5 current amplification rate (%) (human Nav1.5; [1]): 49%

activation at 10 µM (human Nav1.1; [4]): 167%
SMILES: O=C(Cn1nc(N2CCC3(CCC3)CC2)ccc1=O)Nc1ccc2ocnc2c1 [Example 126]
activation at 10 µM (human Nav1.5; [3]): 13%

SMILES: N#Cc1ccc(NC(=O)Cn2nc(N3CCC4(CC3)CC4)ccc2=O)cc1 [Example 17]
Nav1.1 current amplification rate (%) (human Nav1.1; [7]): 212%

Nav1.1 current amplification rate (%) (human Nav1.1; [8]): 71%
SMILES: COC1CCN(c2nccc3c2CCN3C(=O)Cn2nc(C3=CCC(C)CC3)ccc2=O)CC1 (racemic) [Example 309]

SMILES: N#Cc1ccc(NC(=O)Cn2nc(N3CCC4(CCCCC4)C3)ccc2=O)cc1 [Example 31]
Nav1.1 current amplification rate (%) (human Nav1.1; [7]): 220%

Nav1.1 current amplification rate (%) (human Nav1.1; [8]): 77%
SMILES: COC1CCN(Cc2cccc3c2CCN3C(=O)Cn2nc(C3=CCC(C)CC3)ccc2=O)C1 (mixture of isomers) [Example 273]

Nav1.1 current amplification rate (%) (human Nav1.1; [7]): 35%
SMILES: CC1CC=C(c2ccc(=O)n(CC(=O)Nc3ccnc(CN4CCOCC4)c3)n2)CC1 (racemic) [Example 373]

Nav1.1 current amplification rate (%) (human Nav1.1; [8]): 82%
SMILES: Cc1ncc(-c2cncc(NC(=O)Cn3nc(C4=CCC(C)CC4)ccc3=O)c2)o1 (racemic) [Example 380]

Nav1.1 current amplification rate (%) (human Nav1.1; [7]): 11%
SMILES: N#Cc1ccc(NC(=O)Cn2nc(C3CCC(F)(F)CC3)ccc2=O)cc1 [Example 47]

activation at 50 µM (human Nav1.1; Concentration 50 μM (Test Result 7), read-out: Nav1.1 current amplification rate (%)): 281%
SMILES: CN(CC1(C)CC1)c1ccc(=O)n(CC(=O)Nc2ccc3cnccc3c2)n1 [Example 567]

Nav1.1 current amplification rate (%) (human Nav1.1; compound 50 μmol/L, HEK293 stably expressing human Nav1.1): 18%
SMILES: CC1CC=C(c2ccc(=O)n(CC(=O)N3CCN(C4CCOCC4)CC3)n2)CC1 (centres unmarked) [Example 411]

Nav1.1 current amplification rate (%) (human Nav1.1; [7]): 59%
SMILES: N#Cc1ccc(NC(=O)Cn2nc(N3CCCC(C(F)(F)F)C3)ccc2=O)cc1 (centres unmarked) [Example 16]

Nav1.1 current amplification rate (%) (human Nav1.1; [7]): 50%
SMILES: CC1CC=C(c2ccc(=O)n(CC(=O)N3CCC(Oc4ccccc4)CC3)n2)CC1 (racemic) [Example 390]
